Assay [1] addresses T1, GLUT1 (Mus musculus, UniProt P17809).
T1 sequence (P17809 1-492): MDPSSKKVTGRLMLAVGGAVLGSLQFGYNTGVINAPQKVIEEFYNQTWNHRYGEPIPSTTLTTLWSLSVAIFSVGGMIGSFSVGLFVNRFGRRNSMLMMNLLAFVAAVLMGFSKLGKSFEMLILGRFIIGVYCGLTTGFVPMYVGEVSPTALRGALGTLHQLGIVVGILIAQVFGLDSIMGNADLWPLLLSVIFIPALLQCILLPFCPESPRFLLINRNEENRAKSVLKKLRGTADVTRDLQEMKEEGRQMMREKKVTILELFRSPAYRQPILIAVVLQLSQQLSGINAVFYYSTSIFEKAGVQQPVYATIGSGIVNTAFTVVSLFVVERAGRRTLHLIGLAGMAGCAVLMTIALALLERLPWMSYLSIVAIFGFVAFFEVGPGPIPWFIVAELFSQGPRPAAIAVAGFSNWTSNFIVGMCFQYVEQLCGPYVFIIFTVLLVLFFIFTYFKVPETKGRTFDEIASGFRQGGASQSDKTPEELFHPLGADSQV
The assay can be described thus: Inhibition of 3H-2-deoxyglucose uptake in L929 cells. It counts as cell-based.

The target of assay [2] is T2, GLUT1 (Homo sapiens, UniProt P11166).
T2 sequence (P11166 1-492): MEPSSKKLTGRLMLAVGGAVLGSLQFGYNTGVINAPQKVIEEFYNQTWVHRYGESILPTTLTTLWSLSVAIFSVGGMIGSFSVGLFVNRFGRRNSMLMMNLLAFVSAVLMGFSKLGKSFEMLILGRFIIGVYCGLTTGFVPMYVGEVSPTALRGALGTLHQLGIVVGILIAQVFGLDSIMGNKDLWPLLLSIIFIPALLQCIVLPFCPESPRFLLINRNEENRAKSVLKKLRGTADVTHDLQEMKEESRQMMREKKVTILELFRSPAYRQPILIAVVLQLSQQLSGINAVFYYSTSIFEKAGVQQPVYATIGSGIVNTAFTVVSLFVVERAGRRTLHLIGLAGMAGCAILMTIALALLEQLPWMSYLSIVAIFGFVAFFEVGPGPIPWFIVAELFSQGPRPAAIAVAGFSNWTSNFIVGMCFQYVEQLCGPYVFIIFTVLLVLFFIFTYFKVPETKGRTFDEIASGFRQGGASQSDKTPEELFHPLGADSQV
The assay can be described thus: Reduction of specific 3H-cytochalasin B binding in HCLE cells. It counts as cell-based.

Structures are written as SMILES.

In turn, `COc1cc(/C=C/C(=O)CC(=O)/C=C/c2ccc(O)c(OC)c2)ccc1O` [Cur, Curcumin] returned a half-inhibitory concentration (IC50) in assay [1] of 19 µM. For the same compound, in assay [2], the “Reduction of specific 3H-cytochalasin B binding in HCLE cells; 2DG uptake inhibi” value is 80% reduction at 75.

For orientation: IC50 means the concentration that inhibits the measured activity by half.
